From patent publication US20250136594A1 (Tango Therapeutics, Inc., priority 2022, published 2025)

Assays:
[1] = test system: SDMA in HAP1 MTAP-deleted (MTAP-null) cell line (PRMT5 inhibition); test: SDMA in-cell western assay, HAP1 MTAP-deleted cell line; conditions: for IC50 / IC90: Homo sapiens; for IC50: HAP1, read-out: Hap1 MTAP deleted IC50; for IC90: HAP1, read-out: Hap1 MTAP deleted IC90; for Hap1 MTAP intact/deleted ratio: ratio of SDMA IC50 in HAP1 MTAP-intact to HAP1 MTAP-deleted cell line
[2] = test system: HAP1 MTAP-deleted cell line; test: Viability assay, HAP1 MTAP-deleted cell line; type: cell-based; conditions: Homo sapiens; viability assay, HAP1 MTAP-deleted cell line; read-out: Hap1 MTAP deleted viability IC50
[3] = test system: SDMA in HAP1 MTAP-intact cell line (PRMT5 inhibition); test: SDMA in-cell western assay, HAP1 MTAP-intact cell line; conditions: Homo sapiens, HAP1, read-out: Hap1 MTAP intact IC50

Compound	IC50 [1] [nM]	IC90 [1] [nM]	IC50 [3] [nM]	Hap1 MTAP intact/deleted ratio [1]	IC50 [2] [nM]
COC[C@@H](C1CC1)N(Cc1ccc(C(F)(F)F)cn1)C(=O)C(=O)Nc1cncc(C(N)=O)c1 [Compound 34, (R)-N1-(5-carbamoylpyridin-3-yl)-N2-(1-cyclopropyl-2-methoxyethyl)-N2-((5-(trifluoromethyl)pyridin-2-yl)methyl)oxalamide]	5 to 50	75 to 125	> 50	B (IC50 ratio greater than or equal to 15 fold but lower than 30 fold)	100 to 1000
CCN(Cc1ccc(C(F)(F)C(F)(F)F)cc1C)C(=O)C(=O)Nc1cnc(N)c2cn[nH]c12 [Compound 99]	< 5	< 75	> 50	A (IC50 ratio greater than or equal to 30 fold)	< 100
CC(C)CN(Cc1ccc(S(F)(F)(F)(F)F)cc1)C(=O)C(=O)Nc1cnc(N)c2cn[nH]c12 [Compound 110]	< 5	< 75	5 to 50	C (IC50 ratio of less than 15 fold)	< 100
C[C@@H](c1ccc(C(F)(F)C(F)(F)F)cc1F)N(C)C(=O)C(=O)Nc1cnc(N)c2cn[nH]c12 [Compound 168, N-(4-Amino-1H-pyrazolo[4,3-c]pyridin-7-yl)-N′-methyl-N′—[(1S)-1-[2-fluoro-4-(1,1,2,2,2-pentafluoroethyl)phenyl]ethyl]oxamide]	5 to 50	75 to 125	> 50	A (IC50 ratio greater than or equal to 30 fold)	< 100
Nc1ncc(NC(=O)C(=O)N(Cc2ccccc2)CC2CCCCC2)c2[nH]ncc12 [Compound 175, N-(4-amino-1H-pyrazolo[4,3-c]pyridin-7-yl)-N′-benzyl-N′-(cyclohexylmethyl)oxamide]	< 5	< 75	> 50	A (IC50 ratio greater than or equal to 30 fold)	< 100
Nc1ncc(NC(=O)C(=O)N(Cc2ccc(C(F)(F)F)cc2)C2CC2)c2[nH]ncc12 [Compound 107, N-(4-Amino-1H-pyrazolo[4,3-c]pyridin-7-yl)-N′-cyclopropyl-N′-[[4-(trifluoromethyl)phenyl]methyl]oxamide]	< 5	< 75	5 to 50	C (IC50 ratio of less than 15 fold)	< 100
Nc1ncc(NC(=O)C(=O)N(CCC(F)(F)F)Cc2ccccc2)c2[nH]ncc12 [Compound 102, N-(4-amino-1H-pyrazolo[4,3-c]pyridin-7-yl)-N′-benzyl-N′-(3,3,3-trifluoropropyl)oxamide]	5 to 50	> 125	> 50	A (IC50 ratio greater than or equal to 30 fold)	100 to 1000
Cc1ccccc1CN(Cc1ccc(C(F)(F)F)cn1)C(=O)C(=O)Nc1cnc(N)c2cn[nH]c12 [Compound 76, N-(4-amino-1H-pyrazolo[4,3-c]pyridin-7-yl)-N′-(o-tolylmethyl)-N′-[[5-(trifluoromethyl)-2-pyridyl]methyl]oxamide]	< 5	< 75	5 to 50	C (IC50 ratio of less than 15 fold)	< 100
CC[C@@H](C)CN(Cc1ccc(C(F)(F)F)cn1)C(=O)C(=O)Nc1cnc(N)c2cn[nH]c12 [Compound 75, (R)—N^1-(4-amino-1H-pyrazolo[4,3-c]pyridin-7-yl)-N^2-(2-methylbutyl)-N^2-((5-(trifluoromethyl)pyridin-2-yl)methyl)oxalamide]	< 5	< 75	5 to 50	C (IC50 ratio of less than 15 fold)	< 100
Cc1cccnc1CN(Cc1ccccc1)C(=O)C(=O)Nc1cnc(N)c2cn[nH]c12 [Compound 114, N-(4-amino-1H-pyrazolo[4,3-c]pyridin-7-yl)-N′-benzyl-N′-[(3-methyl-2-pyridyl)methyl]oxamide]	< 5	< 75	5 to 50	C (IC50 ratio of less than 15 fold)	< 100
Cn1nccc1CN(Cc1ccccc1)C(=O)C(=O)Nc1cnc(N)c2cn[nH]c12 [Compound 125, N-(4-amino-1H-pyrazolo[4,3-c]pyridin-7-yl)-N′-benzyl-N′-[(2-methylpyrazol-3-yl)methyl]oxamide]	< 5	< 75	5 to 50	B (IC50 ratio greater than or equal to 15 fold but lower than 30 fold)	< 100
Nc1ncc(NC(=O)C(=O)N(Cc2ccccc2)C2CCCc3ccccc32)c2[nH]ncc12 (racemic) [Compound 141, rac-N-(4-Amino-1H-pyrazolo[4,3-c]pyridin-7-yl)-N′-benzyl-N′-tetralin-1-yl-oxamide]	< 5	< 75	5 to 50	C (IC50 ratio of less than 15 fold)	< 100
Cc1ccnc(CN(Cc2ccccc2)C(=O)C(=O)Nc2cnc(N)c3cn[nH]c23)c1 [Compound 156, N-(4-amino-1H-pyrazolo[4,3-c]pyridin-7-yl)-N′-benzyl-N′-[(4-methyl-2-pyridyl)methyl]oxamide]	< 5	< 75	> 50	A (IC50 ratio greater than or equal to 30 fold)	< 100
Cc1ccc(CN(Cc2ccccc2)C(=O)C(=O)Nc2cnc(N)c3cn[nH]c23)c(C)c1 [Compound 98, N-(4-amino-1H-pyrazolo[4,3-c]pyridin-7-yl)-N′-benzyl-N′—[(2,4-dimethylphenyl)methyl]oxamide]	< 5	< 75	5 to 50	B (IC50 ratio greater than or equal to 15 fold but lower than 30 fold)	< 100
CC(C)CN(C(=O)C(=O)Nc1cnc(N)c2cn[nH]c12)[C@@H](C)c1ccccc1 [Compound 165, (S)—N^1-(4-amino-1H-pyrazolo[4,3-c]pyridin-7-yl)-N^2-isobutyl-N^2-(1-phenylethyl)oxalamide]	5 to 50	75 to 125	> 50	A (IC50 ratio greater than or equal to 30 fold)	< 100

More lines, main results first:

IC50 [1] [nM]	IC90 [1] [nM]	IC50 [3] [nM]	Compound	Hap1 MTAP intact/deleted ratio [1]	IC50 [2] [nM]
< 5	> 125	> 50	Nc1ncc(NC(=O)C(=O)N(Cc2ccc(C(F)(F)F)cc2)Cc2ccc(C(F)(F)F)nc2)c2[nH]ncc12 [Compound 28, N-(4-amino-1H-pyrazolo[4,3-c]pyridin-7-yl)-N′-[[4-(trifluoromethyl)phenyl]methyl]-N′-[[6-(trifluoromethyl)-3-pyridyl]methyl]oxamide]	A (IC50 ratio greater than or equal to 30 fold)	100 to 1000
< 5	< 75	> 50	CCN(C(=O)C(=O)Nc1cnc(N)c2cn[nH]c12)C(C)c1ccc(C(F)(F)F)cc1 (centres unmarked) [Compound 58, N-(4-amino-1H-pyrazolo[4,3-c]pyridin-7-yl)-N′-ethyl-N′-[1-[4-(trifluoromethyl)phenyl]ethyl]oxamide]	B (IC50 ratio greater than or equal to 15 fold but lower than 30 fold)	< 100
< 5	< 75	> 50	Cc1cc(C(F)(F)F)ccc1CN(C)C(=O)C(=O)Nc1cnc(N)c2cn[nH]c12 [Compound 170, N-(4-Amino-1H-pyrazolo[4,3-c]pyridin-7-yl)-N′-methyl-N′-[[2-methyl-4-(trifluoromethyl)phenyl]methyl]oxamide]	A (IC50 ratio greater than or equal to 30 fold)	< 100
< 5	< 75	5 to 50	Cc1cc(F)cnc1CN(Cc1ccccc1)C(=O)C(=O)Nc1cnc(N)c2cn[nH]c12 [Compound 116, N-(4-amino-2H-pyrazolo[4,3-c]pyridin-7-yl)-N′-benzyl-N′-[(5-fluoro-3-methyl-2-pyridyl)methyl]oxamide]	B (IC50 ratio greater than or equal to 15 fold but lower than 30 fold)	< 100
< 5	< 75	5 to 50	Nc1ncc(NC(=O)C(=O)N(Cc2ccccc2)Cc2ncc(F)cc2Cl)c2[nH]ncc12 [Compound 65, N-(4-amino-1H-pyrazolo[4,3-c]pyridin-7-yl)-N′-benzyl-N′-[(3-chloro-5-fluoro-2-pyridyl)methyl]oxamide]	C (IC50 ratio of less than 15 fold)	< 100
< 5	< 75	5 to 50	Cc1cc(NC(=O)C(=O)N(Cc2ccc(C(F)(F)F)cn2)[C@@H]2CC[C@@H](C)c3ccccc32)cnc1N (stereo in doubt) [Compound 51, N-(6-amino-5-methyl-3-pyridyl)-N′-(4-methyltetralin-1-yl)-N′-[[5-(trifluoromethyl)-2-pyridyl]methyl]oxamide]	C (IC50 ratio of less than 15 fold)	< 100
5 to 50	75 to 125	> 50	CCC(c1ccc(C(F)(F)F)cn1)N(C)C(=O)C(=O)Nc1cnc(N)c2cn[nH]c12 (centres unmarked) [Compound 138, N-(4-amino-1H-pyrazolo[4,3-c]pyridin-7-yl)-N′-methyl-N′-[1-[5-(trifluoromethyl)-2-pyridyl]propyl]oxamide]	A (IC50 ratio greater than or equal to 30 fold)	100 to 1000
